Results published in patent US7341988B2, “Method of treating influenza with geranyl-geranyl acetone” (Eisai R&D Management Co., Ltd., priority 2001, dated 2008).

How the values were obtained:
[1] = test system: influenza A virus, A/PR/8/34 (H1 N1) strain; test: Weight loss in mouse PR8 infection model; format: in vivo, BALB/cN mice; conditions: GGA treated groups (oral every 12 hours for 3 weeks before infection) except the 75G-PR8 group; control weight loss reaching 30%
Procedure: FIG. 1 indicates an improvement trend of clinical infection symptoms caused by administration of GGA in a mouse PR8 infection model according to the present invention. BALC/c mice that used in the present invention were randomly allotted into the following 4 groups: (1) Control group (n=30) is transnasally administered 2×10^5 PFU of A/PR/8/34; the GGA pre-treatment groups were orally administered GGA every 12 hours for 3 weeks in doses of: (2) 150 mg/kg (150G-PR8 group; n=30), (3) 75 mg/kg (75G-PR8 group; n=30), (4) 15 mg/kg (15G-PR8 group; n=30) and were infected with PR8 after 3 weeks in the same manner. The body weights of the mice were measured 1, 2, 3, 4, 7, and 10 days after infection;
(§1) The virus used in the present invention was the influenza A virus, A/PR/8/34 (H1 N1) strain (hereinafter referred to “PR8”); the mice were 6-week old female SPF (specific pathogen-free) BALB/cN mice (Charles River Japan Co., Ltd.); and the cells were A549 cells derived from human alveolar epithelial cell.
First, the aforementioned mice were raised in a cage for each 4 mice under clean conditions and allowed free access to sterilized feed and water. […]

[2] = test system: influenza A virus, A/PR/8/34 (H1 N1) strain; test: Viral replication in the lungs of infected mice, plaque assay using MDCK; format: in vivo, BALB/cN mice
Description: as §1
(§2) The mice were randomly divided into the following 4 treatment groups, and tested: (1) Control group; intranasl infection with PR8 (2×10^5 PFU) (2) 150G-PR8; group; after administration of 150 mg/kg of GGA, infected with the same amount of PR8 in the same manner as the control group; (3) 75G-PR8 group; after administration of 75 mg/kg of GGA, infected with the same amount of PR8 in the same manner as the control group; (4) 15G-PR8 group; after administration of 15 mg/kg of GGA, infected with the same amount of PR8 in the same manner as the control group. The aforementioned group (1) refers to the control group, and groups (2) to (4) refer to the GGA treated group prior to infection. The GGA treated groups were orally administered GGA every 12 hours for 3 weeks.
FIG. 2 indicates the effects of GGA on viral replication in the lungs of the mice of the various groups after infection by an influenza virus according to the present invention. Here, the assay of virus in the lung was conducted by plaque assay using MDCK.

[3] = test system: viral nucleoprotein (NP) of PR8; test: Viral nucleoprotein (NP) synthesis in the lungs of infected mice, Western blot and EIA; format: in vivo, BALB/cN mice; conditions: GGA treated groups compared with control group
Description: as §1, §2
FIG. 3 indicates the results of the effects of GGA on viral nucleoprotein (called “NP” hereinafter) synthesis in the lungs of the mice of the various groups after infection by an influenza virus according to the present invention. The amount of NP synthesis was measured with Western blot analysis. […]

HSP70 [4] = format: in vivo, BALB/c mice
HSP70 [5] = test: HSP induction in A549 cells (northern blot, 35S-methionine pulse labeling, western blot); format: cell-based, human
[6] = test system: influenza A virus, A/PR/8/34 (H1 N1) strain; format: cell-based; conditions: A549 cells
M×A genes = test: Expression of antiviral gene MxA in PR8-infected A549 cells, northern blot; format: cell-based, human
Description: Studied next were the effects of GGA treatment on the expression of antiviral genes after infection by PR8, and the results are indicated in FIGS. 12 and 13. […] It should be noted that the GAPDH in FIG. 12 was used as a control in the same way as previously described in FIG. 5.

[7] = test system: interferon-inducible double-stranded RNA activated protein kinase (PKR); test: PKR mRNA expression in A549 cells, RT-PCR; format: cell-based, human; conditions: β-actin control
Description: FIG. 13 indicates the results of using RT-PCR to assay the mRNA expression of interferon-inducible double-stranded RNA activated protein kinase (hereinafter referred to “PKR”), which has an antiviral action. […] It should be noted that β-actin in this diagram was used was a control.

[8] = GGA treatment (+), pulse labeling

Q: What does the source list for `CC(=O)CC/C=C(\C)CC/C=C(\C)CC/C=C(\C)CCC=C(C)C` [GGA, 6, 10, 14, 18-tetramethyl-5,9, 13, 17-nonadecatetraen-2-one]?
A: weight loss caused by PR8 infection [1]: almost no weight loss; time after infection at which virus was completely eliminated from the lungs ([2]; 75G-PR8 group (75 mg/kg GGA)): 4 days; time after infection at which virus was completely eliminated from the lungs ([2]; 150G-PR8 group (150 mg/kg GGA)): 3 days; growth of virus in the lungs ([2]; GGA 150, 75, 15 mg/kg oral every 12 hours for 3 weeks before PR8 infection, vs control): suppressed in a GGA dose-dependent manner; NP synthesis in the lungs, Western blot [3]: suppression of NP synthesis in a dose dependent manner; capacity to synthesize NP after infection with PR8, EIA [3]: notably reduced; amount of HSP70 mRNA expressed in the lungs after PR8 infection (HSP70 [4]; […], GAPDH control): dependent on the amount of GGA administered; expression of HSP70 in the lungs, GGA alone (HSP70 [4]; mouse, in vivo): induced in a dose dependent manner; time of peak HSP70 expression after administering GGA (HSP70 [5]; A549 cells, western blot with HSP70 antibodies): 6 h; expression of HSP70 mRNA in A549 cells (HSP70 [5]; northern blot, GAPDH control): induced in a concentration and time dependent manner; HSP70 synthesis in the early period of infection [6, 8]: enhancement of HSP70 synthesis was observed; time after infection at which NP synthesis began [6, 8]: > 12 h; NP synthesis capacity compared to GGA treatment (−) ([6]; PR8 infection, pulse labeling): suppressed; capacity to synthesize viral proteins of PR8 (HA, NP, M1, NS1) ([6]; compared to the control): notably suppressed; duration of HSP70 expression after PR8 infection ([6]; densitometric analysis at 3, 6, 12, 24 hours): up to 12 hours; time after infection up to which expression of NP was prevented ([6]; western blot): up to 12 hours; expression of M×A genes (M×A genes; A549 cells after infection with PR8, GAPDH control): enhanced; expression of HSP mRNA after PR8 infection (M×A genes; A549 cells after infection with PR8, northern blot): enhanced; expression of PKR mRNA [7]: enhanced expression
